This note sets out measurements from BindingDB's records for PubMed 9103528 (Pharmacia & Upjohn, 1997).

Structures are written as SMILES.

Experiment [1] deals with T1, 5-hydroxytryptamine receptor 1A (Rattus norvegicus, UniProt P19327).
T1 sequence (P19327 whole entry): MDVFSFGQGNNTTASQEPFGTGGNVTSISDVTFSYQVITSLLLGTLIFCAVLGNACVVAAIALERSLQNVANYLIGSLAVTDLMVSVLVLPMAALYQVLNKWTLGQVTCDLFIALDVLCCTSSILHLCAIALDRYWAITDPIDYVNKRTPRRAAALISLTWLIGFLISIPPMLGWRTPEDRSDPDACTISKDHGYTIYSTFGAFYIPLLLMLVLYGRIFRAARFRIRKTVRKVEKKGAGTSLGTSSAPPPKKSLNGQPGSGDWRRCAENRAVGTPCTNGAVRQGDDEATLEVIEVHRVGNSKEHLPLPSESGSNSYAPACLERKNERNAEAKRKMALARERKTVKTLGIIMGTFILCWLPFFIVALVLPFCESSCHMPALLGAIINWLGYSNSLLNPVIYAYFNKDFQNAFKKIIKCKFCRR

For experiment [2], the target named is T2, Alpha-1A adrenergic receptor (Rattus norvegicus, UniProt P43140).
T2 sequence (P43140 whole entry): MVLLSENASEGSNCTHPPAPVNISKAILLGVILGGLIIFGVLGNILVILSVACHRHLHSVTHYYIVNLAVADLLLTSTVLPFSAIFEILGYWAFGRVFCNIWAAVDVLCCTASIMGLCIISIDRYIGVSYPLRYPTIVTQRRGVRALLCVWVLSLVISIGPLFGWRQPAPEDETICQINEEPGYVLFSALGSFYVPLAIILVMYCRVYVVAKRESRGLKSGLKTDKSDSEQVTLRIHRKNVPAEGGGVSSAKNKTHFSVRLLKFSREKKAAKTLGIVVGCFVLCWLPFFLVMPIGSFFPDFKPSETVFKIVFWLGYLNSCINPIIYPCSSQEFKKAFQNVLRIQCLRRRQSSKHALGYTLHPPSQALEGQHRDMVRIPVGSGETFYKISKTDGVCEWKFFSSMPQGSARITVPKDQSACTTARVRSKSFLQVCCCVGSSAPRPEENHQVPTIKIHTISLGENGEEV

For experiment [3], the target named is D(2) dopamine receptor (Rattus norvegicus, UniProt P61169).
Experiment [4] deals with T3, Alpha-2C adrenergic receptor (Rattus norvegicus, UniProt P22086).
T3 sequence (P22086 whole entry): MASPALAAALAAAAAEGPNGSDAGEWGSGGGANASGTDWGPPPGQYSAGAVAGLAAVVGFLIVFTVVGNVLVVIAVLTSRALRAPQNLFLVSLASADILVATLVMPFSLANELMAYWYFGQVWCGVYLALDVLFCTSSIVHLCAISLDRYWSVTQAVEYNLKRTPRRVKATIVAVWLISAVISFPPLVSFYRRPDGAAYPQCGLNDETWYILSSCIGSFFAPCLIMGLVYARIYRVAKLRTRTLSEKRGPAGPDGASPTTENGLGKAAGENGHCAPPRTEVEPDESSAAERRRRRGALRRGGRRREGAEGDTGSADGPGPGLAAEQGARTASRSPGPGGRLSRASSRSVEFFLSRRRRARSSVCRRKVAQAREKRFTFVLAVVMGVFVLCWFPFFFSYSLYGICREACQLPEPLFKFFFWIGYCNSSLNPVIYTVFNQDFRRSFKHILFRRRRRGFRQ

Experiment [5] addresses 5-hydroxytryptamine receptor 2A (Rattus norvegicus, UniProt P14842).
For experiment [6], the target named is T4, Muscarinic acetylcholine receptor M2 (Rattus norvegicus, UniProt P10980).
T4 sequence (P10980 whole entry): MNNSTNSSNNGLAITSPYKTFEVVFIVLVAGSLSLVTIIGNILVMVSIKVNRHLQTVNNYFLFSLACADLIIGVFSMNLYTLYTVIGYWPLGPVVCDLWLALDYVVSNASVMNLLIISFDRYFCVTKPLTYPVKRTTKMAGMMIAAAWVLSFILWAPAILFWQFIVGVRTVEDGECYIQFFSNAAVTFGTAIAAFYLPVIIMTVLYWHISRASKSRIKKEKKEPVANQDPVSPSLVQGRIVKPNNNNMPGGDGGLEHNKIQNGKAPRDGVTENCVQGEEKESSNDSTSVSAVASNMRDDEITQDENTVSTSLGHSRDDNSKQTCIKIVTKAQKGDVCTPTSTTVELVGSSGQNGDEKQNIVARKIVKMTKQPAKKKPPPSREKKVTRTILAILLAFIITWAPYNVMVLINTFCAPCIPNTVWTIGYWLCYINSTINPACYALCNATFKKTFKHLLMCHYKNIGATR

D(2) dopamine receptor, sequence (P61169 whole entry): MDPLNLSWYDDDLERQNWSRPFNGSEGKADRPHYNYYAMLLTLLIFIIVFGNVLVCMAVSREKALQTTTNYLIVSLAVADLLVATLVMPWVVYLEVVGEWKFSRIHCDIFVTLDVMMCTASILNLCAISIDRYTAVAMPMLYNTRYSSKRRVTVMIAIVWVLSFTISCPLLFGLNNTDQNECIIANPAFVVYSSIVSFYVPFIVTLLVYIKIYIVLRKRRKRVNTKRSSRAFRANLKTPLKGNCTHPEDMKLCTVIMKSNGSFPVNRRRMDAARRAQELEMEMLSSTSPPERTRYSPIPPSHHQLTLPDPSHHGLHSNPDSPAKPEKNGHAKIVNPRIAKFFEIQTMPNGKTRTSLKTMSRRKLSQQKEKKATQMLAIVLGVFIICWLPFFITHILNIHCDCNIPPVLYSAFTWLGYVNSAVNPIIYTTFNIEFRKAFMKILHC
5-hydroxytryptamine receptor 2A, sequence (P14842 whole entry): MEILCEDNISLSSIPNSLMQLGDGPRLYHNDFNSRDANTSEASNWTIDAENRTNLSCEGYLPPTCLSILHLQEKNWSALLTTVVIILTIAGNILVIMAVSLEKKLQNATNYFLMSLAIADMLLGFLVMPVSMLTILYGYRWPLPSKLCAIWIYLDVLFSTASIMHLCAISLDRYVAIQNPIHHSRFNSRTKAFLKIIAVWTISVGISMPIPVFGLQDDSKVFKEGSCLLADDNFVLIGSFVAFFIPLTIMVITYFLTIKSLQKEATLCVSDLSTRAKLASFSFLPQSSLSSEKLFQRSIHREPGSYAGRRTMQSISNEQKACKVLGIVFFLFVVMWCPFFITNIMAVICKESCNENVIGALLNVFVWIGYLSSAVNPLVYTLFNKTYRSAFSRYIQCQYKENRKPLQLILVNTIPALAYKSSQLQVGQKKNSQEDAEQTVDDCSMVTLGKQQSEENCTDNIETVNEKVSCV

On to `Fc1ccc(N2CCN(CCC3OCCc4ccccc43)CC2)cc1` (stereo unspecified) [CAS_170856-41-4], for which the Ki was 134 nM in experiment [1]; 38 nM in experiment [2]; 199 nM in experiment [3]; 181 nM in experiment [4]; 5.8 nM in experiment [5]; 678 nM in experiment [6].

As a reminder, the Ki is a measure of affinity in units of concentration, obtained from inhibition or displacement.
